Like-named read-outs stand apart in the source and are kept apart here. Values belong to the compound of their own block, whether it stands above or below them.
Tests used:
LRRK2 G2019S = LRRK2 G2019S (Homo sapiens, UniProt Q5S007, G2019S); test: LRRK2 G2019S Lanthascreen; assay type: biochemical; conditions: assay described in ref. 16; read-out: LRRK2 Lanthascreen G2019S cKi
[1] = Free fraction in brain homogenate (fb); assay type: in vitro ADME; conditions: method ref. 18
Source text: (§1) Table 1 LRRK2 wild-type (WT) and G2019S Lanthascreen, MDR1-MDCK permeability (Papp A:B), and efflux ratio (B:A/A:B), free fractions in plasma (fp) and brain homogenate (fb) and PET Multi-Parameter Optimization (MPO) score of Compounds 1, 2, and 3. | column: fb ^3 (%)

LRRK2 wild-type (WT) = LRRK2 wild-type (WT) (Homo sapiens, UniProt Q5S007); test: LRRK2 wild-type Lanthascreen; assay type: biochemical; conditions: assay described in ref. 16; read-out: LRRK2 Lanthascreen WT cKi
MDR1 (P-gp) = test: MDR1-MDCK permeability and efflux ratio; assay type: in vitro ADME; conditions: dog, assay described in ref. 17
Source text: as §1, with “Papp A:B ^2 (MDR1-MDCK) (cm/s × 10^−6); B:A/A:B ^2” for “fb ^3 (%)”

[2] = Free fraction in plasma (fp); assay type: in vitro ADME; conditions: method ref. 18
Source text: Table 1 LRRK2 wild-type (WT) and G2019S Lanthascreen, MDR1-MDCK permeability (Papp A:B), and efflux ratio (B:A/A:B), free fractions in plasma (fp) and brain homogenate (fb) and PET Multi-Parameter Optimization (MPO) score of Compounds 1, 2, and 3. | column: fp ^3 (%)

cynomolgus monkey brain = test: In vivo PET imaging in cynomolgus monkeys; conditions: for Blocking effect on [^18F]1 brain binding in vivo: pretreatment 30 min before [^18F]1, GNE-7915 40 mg/kg, PFE-360 0.5 mg/kg iv
Source text: PET measurements were led using a high-resolution research tomograph (HRRT) from Siemens Molecular Imaging (Knoxville, TN, USA). List mode data were reconstructed using the ordinary Poisson-3D-ordered subset expectation maximization (OP-3D-OSEM) algorithm, with 10 repetitions and 16 subsets while modeling the point spread function (PSF). The in-plane resolution accomplished with OP-3D-OSEM and PSF was 1.5 mm full width at half maximum (FWHM) at the center of the field of view (FOV) and 2.4 mm at 10 cm off-center.
The study was approved by the Animal Ethics Committee of the Swedish Animal Welfare Agency and was performed according to “Guidelines for planning, conducting and documenting experimental research” (Dnr 5.2.18-4170/14 issued on 11 April 2014) of the KI as well as the “Guide for the Care and Use of Laboratory Animals” [26]. NHPs were supplied by the Astrid Fagraeus Laboratory (AFL) of the Swedish Institute for Infectious Disease Control (SMI), Solna, Sweden. Anesthesia was brought by intramuscular injection of ketamine hydrochloride (approximately 10 mg/kg) at AFL and continued with a mixture of sevoflurane (0–8.0%), oxygen, and medical air through endotracheal intubation at the KI PET center. The NHP head was immobilized using a homemade fixation device. Body temperature was maintained with a Bair Hugger model 505 (Arizant Healthcare, Eden Prairie, MN, USA) and monitored via an esophageal thermometer. ECG, heart rate, respiratory rate, blood pressure, and oxygen saturation were continuously examined throughout the experiments. The fluid balance was retained with continuous infusion of saline.
A 6 min transmission scan was performed before the injection of the radioligand using a single Cs-137 source. List mode data was acquired continuously for 93 min following intravenous administration of the radioligand. Images were reconstructed into 38 frames with varying intervals: […].
For all PET measurements, radioligands were administered via intravenous injection. Regions of interest (ROIs) were manually delineated on MRI images for each NHP, for the whole brain, cerebellum, caudate, putamen, thalamus, frontal cortex, temporal cortex, amygdala, posterior cingulate cortex, anterior cingulate cortex, hippocampus, occipital cortex, parietal cortex, ventral striatum, and insula. The summed PET images over the entire duration were co-registered with the individual NHP’s MRI image. After applying the co-registration parameters to the dynamic PET data, time–activity curves were generated for each brain region for every PET measurement. The standardized uptake value (SUV) was calculated for each brain region. The total distribution volume (VT) for all three radioligands were derived using one-tissue compartment (1-TC) and two-tissue compartment (2-TC) models.
On two separate occasions, PET measurements were performed after intravenous administration of GEN-7915 or PFE-360 with a slow infusion in one NHP (NHP2). The infusion lasted for 2 min, starting 30 min before PET scanning. The pretreatment formulations were prepared by dissolving it in DMSO (5%), Kolliphor EL (15%), and PBS (80%), and the pH of the final formulation was approximately 4.5–5.0. An automated blood sampling system (ABSS) measured continuous radioactivity for the first 3 min following the radioligand injection, while manual blood samples were taken at 4, 15, 30, 60, and 90 min post-injection to measure the radioactivity and metabolism.

LRRK2 = target: T1, LRRK2 (Homo sapiens, UniProt Q5S007); test: In vitro autoradiography, human whole-hemisphere brain slices; assay type: binding
T1 construct: Human brains without pathological findings were acquired from the National Institute of Forensic Medicine; from tissue; host or cells: human post-mortem control brain, whole-hemisphere sections (100 µm)
Method: Human brains without pathological findings were acquired from the National Institute of Forensic Medicine at Karolinska Institutet in Stockholm, Sweden. These brains were obtained during forensic autopsies (designated as control brain) and were processed in a manner like previously described methods. […] The brain was removed, and its tissues were kept in −85 °C until the sectioning process. The whole brain hemispheric slices were subsequently maintained at −25 °C until the commencement of autoradiography procedures. […] The sectioning of the brain and the autoradiography experiments were performed at the Psychiatry section, Department of Neuroscience, Karolinska Institutet, Sweden.
Whole brain hemispheres were sectioned into horizontal slices with a thickness of 100 µm using a Leica cryomacrocut system. The autoradiographic procedures followed the same protocols established in previous studies conducted in our laboratory. The whole-hemisphere sections of 100 micron thickness were incubated for 90 min at room temperature with their corresponding radiotracer (4 MBq/200 mL) in TRIS buffer (pH 7.4) containing sodium chloride (120 mM), potassium chloride (5 mM), calcium chloride (2 mM), and albumin (0.1% w/v). After incubation, sections were washed three times in the same buffer at room temperature for five minutes each, briefly dipped in ice-cold distilled water, dried, and then placed in the phosphor imaging plates. Binding density standards were prepared by serial dilution of the radioligand stock solution in the assay buffer. Readings were taken with the Fujifilm BAS-5000 (Fujifilm, Tokyo, Japan), while quantitative analysis was conducted with the Multi Gauge 3.2 image analysis software (Fujifilm, Tokyo, Japan). For blocking experiments, adjacent brain sections were co-incubated with LuAF66583 (0.1 µM or 10 µM).

[3] = Radiometabolite analysis in monkey plasma (gradient HPLC); assay type: in vivo, cynomolgus monkey; conditions: baseline PET
Method: The technique published earlier was utilized for the analysis of radiometabolites in NHP blood plasma. During the entire PET measurement, the percentage of the injected radioligand and its corresponding radioactive metabolites and radioactivity was measured with a reverse-phase HPLC system with UV absorbance detector (λ = 254 nm) and a radioactive detector. […] The blood samples were centrifuged at 4000 rpm for 2 min to separate plasma. From the centrifuged plasma, the resulting plasma was withdrawn and spiked with 1.4 times its volume of acetonitrile before being spun at 6000 rpm for 4 min. The supernatant, collected after the spun at 6000 rpm, was diluted with 3 mL of water, which was then injected into the HPLC system. The HPLC system was constructed with an Agilent 1200 series binary pump (Agilent, Santa Clara, CA, USA), a Rheodyne 7725i (Thermo Scientific, Waltham, MA, USA) manual injection valve, a 5.0 mL loop, and an Oyokoken S-2493Z radiation detector (Oyokoken, Tokyo, Japan) fitted with 50 mm lead shielding, which houses the detector. Chromatographic separation of the radiometabolites from the unchanged radioligand was performed via gradient elution on a semi-preparative reverse-phase ACE 5 µm C18 HL column (250 × 10 mm) using a mobile phase of acetonitrile (A) and ammonium formate 0.1 M (B). A flow rate of 5.0 mL/min was utilized according to the program 0–6.0 min: (A/B) 40:60 → 90:10 v/v; 6.0–10.0 min: (A/B) 90:10 (v/v). The radioactive peak corresponding to the parent radioligand was then integrated from the data output of the HPLC column. The area of this peak was calculated relative to the total area detected for all radioactive compounds. To evaluate the radioactivity recovery from the system, the measurement was taken from a 2 mL aliquot of the eluate taken from the HPLC column and measured against the total injected radioactivity.

[4] = Plasma protein binding by ultrafiltration; assay type: in vitro ADME, non-human primate (NHP); conditions: cynomolgus monkey, pH 7.4, NHP plasma, baseline
Method: The plasma protein binding of all three radioligands was determined in duplicate at the baseline condition according to a previously published method. For each blood plasma sample, 500 μL of non-human primate (NHP) blood plasma was used with 50 μL PBS (pH 7.4 containing KCl 0.2 mg, KH2PO4 0.2 mg, Na2HPO4 1.42 mg, and NaCl 8 mg per mL). The mixture included around 20 MBq of the corresponding radioligand in PBS. Samples underwent incubation at room temperature for 10 min. A small aliquot (20 µL) was taken from each mixture, and radioactivity measurements were performed using a well counter. From each mixture, 200 µL was placed into ultrafiltration tubes (Millipore Centrifree YM-30) and centrifuged at 3000 rpm for 15 minutes. The remaining filtrates were analyzed and aliquots (20 µL) were counted in the well counter described earlier. Protein-bound fractions were calculated as follows:(1) C⥂pla (filtrate) /Cpla (total) ÷CPBS (filtrate) /CPBS (total) ×100(%)
Cpla (total) represents the radioactivity concentration of incubation mixture in plasma and CPBS (total) represents the radioactivity concentration of incubation mixture in PBS. Cpla (filtrate) and CPBS (filtrate) are the radioactivity concentrations from filtrate samples.

[5] = Stability of formulated radioligand in PBS (analytical HPLC); assay type: physicochemical; conditions: sterile PBS, for 60 min
Method: The radiochemical purity and stability of all three radioligands ([^11C]3, [^18F]1 and [^18F]2) were determined using analytical HPLC coupled with an XBridge analytical column (C18 5 µm, 4.6 × 150 mm particle size), a Merck-Hitachi L-7100 pump, an L-7400 UV detector, and a GM tube for radioactivity detection (VWR International). A mixture of acetonitrile (25%) and HCO2NH4 (0.1 M aq. solution) (75%) with a flow rate of 2 mL/min was used as HPLC isocratic mobile phase. The HPLC liquid flow was monitored using a UV absorbance detector (λ = 254 nm) in conjunction with a radioactive detector (BETA-flow, Beckman, Fullerton, CA, USA). All three radioligands were eluted with a retention time (tR) of 4.0–4.5 min, and the total run time of the HPLC program was 9 min. The identity of the radiolabeled compound was confirmed by co-injecting the corresponding authentic reference standard.

T1 sequence (Q5S007 whole entry): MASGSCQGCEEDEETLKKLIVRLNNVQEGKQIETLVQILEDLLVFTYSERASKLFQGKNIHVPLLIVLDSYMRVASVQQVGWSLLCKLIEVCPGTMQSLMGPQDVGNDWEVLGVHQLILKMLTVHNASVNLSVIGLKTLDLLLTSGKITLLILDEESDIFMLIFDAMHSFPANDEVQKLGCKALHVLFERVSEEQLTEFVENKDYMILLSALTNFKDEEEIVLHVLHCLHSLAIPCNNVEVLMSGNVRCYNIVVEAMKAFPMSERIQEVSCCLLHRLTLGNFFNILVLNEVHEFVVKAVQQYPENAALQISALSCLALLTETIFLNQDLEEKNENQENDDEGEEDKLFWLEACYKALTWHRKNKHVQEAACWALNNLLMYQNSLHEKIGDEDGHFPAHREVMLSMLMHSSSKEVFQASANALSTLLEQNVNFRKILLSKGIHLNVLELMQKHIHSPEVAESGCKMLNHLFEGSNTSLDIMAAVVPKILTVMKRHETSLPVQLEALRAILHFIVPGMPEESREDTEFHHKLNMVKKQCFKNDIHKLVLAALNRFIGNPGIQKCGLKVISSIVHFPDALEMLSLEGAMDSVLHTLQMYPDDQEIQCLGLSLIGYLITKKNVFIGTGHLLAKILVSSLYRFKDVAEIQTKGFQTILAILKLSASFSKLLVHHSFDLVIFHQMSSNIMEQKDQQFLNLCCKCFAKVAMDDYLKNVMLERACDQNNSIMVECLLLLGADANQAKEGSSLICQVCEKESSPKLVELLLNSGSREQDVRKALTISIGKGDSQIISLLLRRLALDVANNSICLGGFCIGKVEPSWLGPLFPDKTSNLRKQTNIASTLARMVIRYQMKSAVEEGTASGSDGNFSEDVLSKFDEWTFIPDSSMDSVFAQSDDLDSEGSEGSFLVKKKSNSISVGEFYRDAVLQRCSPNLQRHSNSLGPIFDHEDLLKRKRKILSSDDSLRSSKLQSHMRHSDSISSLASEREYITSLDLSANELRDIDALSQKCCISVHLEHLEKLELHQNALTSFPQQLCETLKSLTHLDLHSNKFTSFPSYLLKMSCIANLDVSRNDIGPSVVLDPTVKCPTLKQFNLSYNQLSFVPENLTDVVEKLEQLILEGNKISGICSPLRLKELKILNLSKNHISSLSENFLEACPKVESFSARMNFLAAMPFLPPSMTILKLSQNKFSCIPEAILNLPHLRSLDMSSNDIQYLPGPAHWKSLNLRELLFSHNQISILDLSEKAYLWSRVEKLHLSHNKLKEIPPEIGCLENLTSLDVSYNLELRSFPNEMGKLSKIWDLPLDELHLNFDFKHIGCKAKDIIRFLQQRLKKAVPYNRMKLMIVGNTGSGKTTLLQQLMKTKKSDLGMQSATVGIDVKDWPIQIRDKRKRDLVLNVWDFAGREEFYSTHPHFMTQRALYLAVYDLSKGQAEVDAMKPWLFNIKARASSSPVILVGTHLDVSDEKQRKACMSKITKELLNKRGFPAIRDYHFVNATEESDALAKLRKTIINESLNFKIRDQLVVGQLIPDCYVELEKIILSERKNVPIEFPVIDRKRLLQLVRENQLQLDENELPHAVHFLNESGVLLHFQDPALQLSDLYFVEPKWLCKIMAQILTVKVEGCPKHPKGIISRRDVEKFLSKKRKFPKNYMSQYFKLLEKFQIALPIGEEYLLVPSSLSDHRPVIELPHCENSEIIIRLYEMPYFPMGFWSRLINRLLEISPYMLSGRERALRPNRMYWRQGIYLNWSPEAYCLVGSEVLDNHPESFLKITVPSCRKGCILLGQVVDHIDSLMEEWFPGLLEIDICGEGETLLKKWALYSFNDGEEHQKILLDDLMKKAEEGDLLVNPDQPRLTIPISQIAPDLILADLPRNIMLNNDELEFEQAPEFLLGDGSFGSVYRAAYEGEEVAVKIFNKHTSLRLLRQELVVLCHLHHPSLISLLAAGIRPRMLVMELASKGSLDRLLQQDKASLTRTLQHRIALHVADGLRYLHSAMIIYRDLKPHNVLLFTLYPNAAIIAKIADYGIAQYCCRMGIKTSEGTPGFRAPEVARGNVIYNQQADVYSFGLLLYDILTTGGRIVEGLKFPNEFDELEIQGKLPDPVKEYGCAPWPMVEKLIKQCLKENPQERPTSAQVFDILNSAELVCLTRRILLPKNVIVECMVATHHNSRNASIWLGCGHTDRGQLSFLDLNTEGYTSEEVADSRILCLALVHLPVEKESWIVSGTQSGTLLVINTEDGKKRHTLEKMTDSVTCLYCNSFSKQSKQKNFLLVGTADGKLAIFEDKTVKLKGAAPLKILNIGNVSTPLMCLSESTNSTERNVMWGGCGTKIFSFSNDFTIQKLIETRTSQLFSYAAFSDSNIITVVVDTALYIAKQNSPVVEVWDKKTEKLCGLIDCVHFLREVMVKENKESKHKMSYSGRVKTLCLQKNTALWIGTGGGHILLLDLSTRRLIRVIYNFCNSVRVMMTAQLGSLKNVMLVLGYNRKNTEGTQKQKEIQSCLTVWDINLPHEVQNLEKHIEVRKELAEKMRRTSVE
Sequence of LRRK2 G2019S (Q5S007 whole entry G2019S): as the sequence (Q5S007 whole entry) above, with G2019S counted along it
Sequence of LRRK2 wild-type (WT) (Q5S007 whole entry): as the sequence (Q5S007 whole entry) above

Ki (LRRK2 G2019S): 0.37 nM
fraction unbound [1]: 0.23
Ki (LRRK2 wild-type (WT)): 0.32 nM
Papp A→B (MDR1 (P-gp); MDCK-MDR1): 44 ×10⁻⁶ cm/s
efflux ratio (MDR1 (P-gp); MDR1-MDCK, read-out: B:A/A:B (efflux ratio)): 0.66
fraction unbound [2]: 0.47
SMILES: C[C@@H]1C[C@@H](F)CN1c1c(C#N)c2c(N)ncnc2n1C [Compound 2, 4-Amino-6-((2R,4R)-4-fluoro-2-methylpyrrolidin-1-yl)-7-methyl-7H-pyrrolo[2,3-d]pyrimidine-5-carbo nitrile]

SMILES: CCNc1nc(Nc2cc(F)c(C(=O)N3CCOCC3)cc2OC)ncc1C(F)(F)F [GEN-7915, reference compound]
Blocking effect on [^18F]1 brain binding in vivo (cynomolgus monkey brain): no clear blocking effects

Effect on [^18F]1 binding (ARG) (LRRK2; human brain slice, pre-incubation with 0.1 µM): did not significantly reduce
Effect on [^18F]2 binding (ARG) (LRRK2; human striatum, hippocampus, cerebellum, pretreated with 10 µM): significantly reduced
SMILES: Cn1cc(-c2c[nH]c3ncnc(N4CCOCC4)c23)cc1C#N [PFE-360, reference compound]
Blocking effect on [^18F]1 brain binding in vivo (cynomolgus monkey brain): no clear blocking effects

SMILES: C[C@@H]1CCCN1c1c(C#N)c2c(N)nc(Nc3cnn([11CH3])c3)nc2n1C [[^11C]3, (R)-4-Amino-7-methyl-2-((1-[^11C]methyl-1H-pyrazol-4-yl)amino)-6-(2-methylpyrrolidin-1-yl)-7H-pyrrolo[2,3-d]pyrimidine-5-carbonitrile]
Parent compound, share of eluted plasma radioactivity ([3]; at 5 min): over 90%
Parent compound, share of eluted plasma radioactivity ([3]; at 90 min): around 10%
Brain uptake (cynomolgus monkey brain; PET, iv, baseline): > 1 %ID
Brain washout (cynomolgus monkey brain; PET, iv, baseline): rapid washout
Regional distribution of brain uptake (cynomolgus monkey brain; PET, iv, baseline): no significant regional differences
fraction unbound at 10 min ([4]; read-out: Free fraction in plasma (fP)): ~0.15
fraction unbound at 10 min ([4]; read-out: Plasma protein binding (converted)): < 0.15
Radiochemical purity maintained in formulation [5]: exceeding 99%

Reference: publication PMC12735872, “Development of ^18F/^11C-Labeled Pyrrolo-Pyridine/Pyrimidine LRRK2 Selective PET Radioligands” (Pharmaceuticals, 2025)
